Source: patent US7129226B2, “Mimetic insect allatostatin analogs for insect control” (The United States of America as represented by the …, priority 1998, dated 2006)
Where two headings read alike, the source gives them in different places. Ends that are not written are not given here. Peptide text beside a SMILES is read from it. carboranyl propanoic acid = 2-o-carboranylpropanoic acid

Key:
[1] = system: corpora allata of the cockroach Diploptera punctata (JH biosynthesis); assay: In vitro radiochemical assay of JH biosynthesis/release by corpora allata; format: cell-based; details: for bioactivity (inhibition of JH biosynthesis): result in words
Description: Rates of JH release were determined by the in vitro radiochemical method of Feyereisen and Tobe (Anal. Biochem., 111:372–375, 1981) and as modified by Tobe and Clarke (Tobe and Clarke, Insect Biochem., 15:175–179, 1985). The incorporation of L[^14C—S-methyl]-methionine (50 μM, specific radioactivity 1.48–2.03 GBq/mmol from New England Nuclear or Amersham) into JH III at its penultimate step of biosynthesis by CA incubated in 50 μl TC 199 (GIBCO, 1.3 mM Ca^2+, 2% Ficoll, methionine-free) was used to quantify JH release. Animals were anaesthetized on ice prior to dissection. Corpora allata were dissected directly into non-radioactive medium (only animals with oviposited basal oocytes were used for assay). Samples were dried with nitrogen and resuspended in 10 μl 1N HCl. Radioactive medium was added and neutralized with 10 μl NaOH. Individual CA were transferred from non-radioactive medium to radioactive medium and were incubated for 3 h. The amount of inhibition was expressed as the percent reduction from the untreated rate: [1-(treated rate/untreated rate))] ×100%. Each value represents replicate incubations of a minimum of 8 tests.
D. punctata females mate almost immediately following emergence. Therefore, newly emerged, mated females were transferred each day from the stock culture to an incubator and kept at 27±1° C. The relative humidity was approximately 50% with a 12 hour light:dark cycle. Insects were reared on Purina Lab Chow and water. Mating was confirmed by the presence of a spermatophore. Basal oocyte length was also measured (day 5=1.44–1.68 mm). Only day 5 mated females were utilized for the degradation studies. Day 7 mated females (only with oviposited basal oocytes) were the source of corpora allata for analysis of JH biosynthesis.
Radiochemical assays were conducted as described in Example 1.

in vitro [2] = format: in vitro ADME, Diploptera punctata
Description: (§1) Day 5 mated female D. punctata were anaesthetized on ice before dissection. Following dissection, tissues were stored in saline (0.9% NaCl pH 7.0–7.2 or cockroach saline; […] at pH 7.2–7.4) on ice. Tissues were cleaned of fat body and trachea and guts were cleaned. Midgut peritrophic membrane was removed, midguts cut open, the guts gently pulled through forceps and then washed 3×. Tissues were stored at −70° C. until sufficient material was collected.
(§2) Tissues were pooled and homogenized in saline on ice in microcentrifuge tubes (2.5 ml) for 2 min with an Omni hand held homogenizer. Homogenates were centrifuged at 1000 g for ten min at 4° C. to remove cellular debris. The pellet was discarded. Supernatant was subsequently centrifuged at 30,000 g for 30 min. Pellet (crude membrane preparation) was washed three times in homogenization buffer and resuspended in saline using the Omni homogenizer.
(§3) Crude membrane preparation or hemolymph was aliquoted into 1.5 ml microcentrifuge tubes for in vitro assay. Dip-AST5 (6 μM) or analog was added to each assay tube from a 1 mM stock solution. Total incubation volume was 500 μl. Tubes were placed on a shaker at room temp for the duration of the incubation time. Incubations were terminated by the addition of 200 μl 30% aqueous TFA. Samples were centrifuged at 10,000 g and the supernatant was applied to a C18 solid phase extraction column. None of the potential, synthetic Dip-AST5 metabolites are lost (unpublished data). The 17–40% acetonitrile fraction was concentrated with a Speed-Vac apparatus and held at −70° C. until HPLC analysis. Samples is were diluted in 0.5 ml 0.1% aqueous TFA, filtered through 0.2 μm micro-spin filters and injected onto the HPLC column. Separation of allatostatins and their catabolites, or analogs and their catabolites, was performed using reversed-phase HPLC (see HPLC methods). When available, retention times of synthetic metabolites were used as a reference to identify endogenous metabolites. Dip-AST5 fragments were synthesized by the Institute for Biosciences and Technology, Dept. of Entomology, Texas A & M University. Dip-ASTs were synthesized by the Core Facility of Insect Biotech Canada (Department of Biochemistry, Queen's University) or obtained from Sigma Chemical Co., St. Louis, Mo. 63178 USA. The identity of fragments resulting from peptidase degradation was also confirmed by FAB mass spectrometry by adding samples in a glycerol medium (1.5 μl) onto a copper probe, followed by bombardment with 8 kV Xe atoms on a Kratos MS-50 mass spectrometer. (Kratos, Manchester, UK).
(§4) Degradation experiments were analyzed by RP-HPLC using a 220×4.6 mm Brownlee Phenyl column (5 μm) on a Spectra-Physics chromatography system with a Spectra-Physics Chromjet integrator and a Spectra-Physics 8490 detector. Following a 5 min wash with 1.5% acetonitrile in 0.1 aqueous TFA, a linear gradient of acetonitrile (15–37.5% in 50 min; 37.5–65% in 5 min) at a flow rate of 0.5 ml/min was used to elute peptides and analogs. Fractions (0.5 ml) were collected each minute during the gradient run.

brain peptidases = assay: in vitro; format: in vitro ADME, Diploptera punctata; details: female, tissue homogenate; for half-life at 6 μM: Diploptera punctata
Description: as §1, §2, §3, §4

midgut peptidases = assay: in vitro; format: in vitro ADME, Diploptera punctata; details: female, tissue homogenate
Description: as §1, §2, §3, §4

[3] = Penetration of analog through isolated cockroach cuticle (RPLC of well contents); format: in vitro ADME, American cockroach
Description: Adults of the American cockroach were obtained from. colonies at our facility (CMAVE). Animals, anesthetized by submersion in H2O for 30 min, were pinned ventral side up in a wax dissecting dish flooded with water. Lateral incisions along the margins of the abdominal sternites were made between segments 1–7. The epidermal layers including the cuticle and epidermal cells were lifted up and associated tissue was cleared using forceps prior to removal. The epidermal tissue was placed cell side up on a microscope slide and the cells were scraped from the cuticle using a glass cover slip. To further clean the cuticle of cellular debris the tissue was floated, cell side down, in a beaker containing H2O and subjected to sonication in a water bath at 30° C. for 30 min. The cuticle strips were then washed 3× in clean water. Pieces of cuticle, ca. 0.4 cm^2, composed of individual sternites without associated intersegmental membranes were then dissected away from remaining cuticle.
Incubation of cuticle was accomplished using the wells of ELISA plates (Corning, 96 well Easy Wash). […]
Dried samples were reconstituted in 35% acetonitrile (MeCN) (Burdick and Jackson) prior to analysis. […] Data acquired from analyses were reduced and analyzed using NCSS 97 software using regression analysis and T-Tests.

in vitro [4] = format: in vitro ADME, Diploptera punctata; remark: listed apart in the source
Description: as §1
(§5) Hemolymph was collected following the method of King and Tobe (Insect Biochem., 18:793–805, 1988). Hemolymph was diluted 100× with saline.
as §3
as §4, with “Fractions (0.5 ml) were collected each minute during the gradient run.” left out

hemolymph peptidases = assay: in vitro; format: in vitro ADME, Diploptera punctata; details: female, Diploptera punctata
Description: as §1, §5, §3
as §4, with “Fractions (0.5 ml) were collected each minute during the gradient run.” left out

[5] = 3 h in vitro radiochemical assay, single 7-day mated CA, read-out: IC50, half-maximal inhibition of JH release

carboranyl propanoic acid-Ser-Phe-Gly-Leu-NH2 ({carboranyl propanoic acid}-SFGL-NH2)
EC50 ([1]; in another assay, read-out: activity (ED50)): 0.644 nM

CC(C)C[C@H](NC(=O)C1(NC(=O)[C@H](Cc2ccccc2)NC(=O)[C@H](CC(N)=O)NC(=O)[C@H](Cc2ccc(O)cc2)NC(=O)[C@@H]2CCCN2C(=O)[C@H](CCCNC(=N)N)NC(=O)[C@H](C)N)CC1)C(N)=O [analog 397-2, Ala-Arg-Pro-Tyr-Asn-Phe-Cpa-Leu-NH2] (HELM PEPTIDE1{A.R.P.Y.N.F.[O=C(C1(N[*:1])CC1)[*:2]].L.[am]}$$$$V2.0; N-terminus assumed)
IC50 [1, 5]: 172 nM | bioactivity (inhibition of JH biosynthesis) [1]: significant bioactivity | resistance to cleavage by membrane-bound enzymes (in vitro [2]): little resistance | half-life at 6 μM (brain peptidases): 1.01 h | half-life at 6 μM (midgut peptidases; Diploptera punctata): 0.347 h

CC(C)C[C@H](NC(=O)CNC(=O)C1(NC(=O)[C@H](CC(N)=O)NC(=O)[C@H](Cc2ccc(O)cc2)NC(=O)[C@@H]2CCCN2C(=O)[C@H](CCCNC(=N)N)NC(=O)[C@H](C)N)Cc2ccccc2C1)C(N)=O [analog 396-1, Ala-Arg-Pro-Tyr-Asn-Aic-Gly-Leu-NH2] (HELM PEPTIDE1{A.R.P.Y.N.[O=C(C1(N[*:1])Cc2ccccc2C1)[*:2]].G.L.[am]}$$$$V2.0; N-terminus assumed)
IC50 ([1]; read-out: IC50): 2.12 nM | bioactivity (inhibition of JH biosynthesis) [1]: significant bioactivity | resistance to cleavage by membrane-bound enzymes (in vitro [2]): little resistance | half-life (brain peptidases): 0.287 h | half-life (midgut peptidases): 0.377 h

CC(C)C[C@H](NC(=O)CNC(=O)[C@H](Cc1ccccc1)NC(=O)[C@H](CC(N)=O)NC(=O)[C@H](Cc1ccc(O)cc1)NC(=O)CC1c2ccccc2-c2ccccc21)C(N)=O [analog 525] (HELM PEPTIDE1{[O=C(CC1c2ccccc2-c2ccccc21)[*:2]].Y.N.F.G.L.[am]}$$$$V2.0)
release rate through the cuticle ([3]; 0.5 nmol applied to cuticle, rate stabilized after six hours): about 1.5 pmol/h | penetration of the cuticle ([3]; cockroach cuticle, result in words): penetrated the cuticle effectively

DRLYSFGL-NH2 [Dip-AST5, reference compound]
IC50 [1, 5]: 3.12 nM | IC50 ([1]; read-out: IC50): 3.1 nM | half-life at 6 μM (in vitro [4]; female, Diploptera punctata): 2.55 h

CC(C)C[C@H](NC(=O)C1(NC(=O)[C@H](Cc2ccccc2)NC(=O)[C@H](CC(N)=O)NC(=O)CCc2ccccc2)CC1)C(N)=O [AST(b)φ2, Hca-Asn-Phe-Cpa-Leu-NH2] (HELM PEPTIDE1{[O=C(CCc1ccccc1)[*:2]].N.F.[O=C(C1(N[*:1])CC1)[*:2]].L.[am]}$$$$V2.0)
IC50 [1, 5]: 1550 nM | bioactivity (inhibition of JH biosynthesis) [1]: significant biological activity | longer half-life than the native neuropeptide Dip-AST5 (in vitro [4]): 8 fold | resistance to degradation by enzymes (in vitro [4]): extreme resistance | half-life at 6 μM (hemolymph peptidases): 20.2 h | longer half-life than the native neuropeptide Dip-AST5 (in vitro [2]): 600 fold | resistance to midgut peptidases (in vitro [2]): completely resistant | Half-life, Midgut (in vitro [2]; tissue homogenate): ∞ | half-life at 6 μM (brain peptidases): 180 h
